The data set concerns the target T1, rCYP2C19 (Homo sapiens, UniProt P33261).
T1 construct: purchased Cypex, Ltd; host or cells: Escherichia coli
The data set is described as follows: Reaction phenotyping with rCYP2C19. It is filed as in vitro ADME. To be noted: rCYP2C19, 60 min. On the procedure: For FFA and nFFA reaction phenotyping experiments, LC‐MS/MS experiments were performed using an API 4000 QTRAP or QTRAP 5500 mass spectrometer (SCIEX) with positive electrospray ionization. Chromatography was performed using an Atlantis dC18 analytical column (100 × 2.1 mm, 5 µm; Waters Corporation). Mobile phases were 0.2% v/v formic acid in water and 0.2% v/v formic acid in methanol. FFA and nFFA were eluted at a flow rate of 0.5 mL/min with a linear gradient of 40%−95% methanol from 0.20−2.1 min. The mass transitions monitored were 232.0>109.0 for FFA, 204.0>159.0 for nFFA, 348.0>330.0 for 1’‐hydroxymidazolam‐d4 internal standard (FFA reaction phenotyping), and 262.0>244.0 for hydroxybupropion‐d6 internal standard (nFFA reaction phenotyping). Analyst Instrument Control and Data Processing software (v. 1.6.1) was used for collecting and integrating data (SCIEX). Calibration curves ranging from 1.25 µM−0.01 µM were used to quantify nFFA. Relative quantitation was used to approximate the amount of FFA test material used.
Methods used to evaluate the role of CYP450s in the metabolism of FFA have been described.[22], [23], [24] […] Supernatant fractions were analyzed by LC‐MS/MS.

The source of these data is paper PMC9124820, “In vitro evaluation of fenfluramine and norfenfluramine as victims of drug interactions” (Pharmacology Research & Perspectives, 2022).

Structures are written as SMILES.

T1 sequence (P33261 whole entry): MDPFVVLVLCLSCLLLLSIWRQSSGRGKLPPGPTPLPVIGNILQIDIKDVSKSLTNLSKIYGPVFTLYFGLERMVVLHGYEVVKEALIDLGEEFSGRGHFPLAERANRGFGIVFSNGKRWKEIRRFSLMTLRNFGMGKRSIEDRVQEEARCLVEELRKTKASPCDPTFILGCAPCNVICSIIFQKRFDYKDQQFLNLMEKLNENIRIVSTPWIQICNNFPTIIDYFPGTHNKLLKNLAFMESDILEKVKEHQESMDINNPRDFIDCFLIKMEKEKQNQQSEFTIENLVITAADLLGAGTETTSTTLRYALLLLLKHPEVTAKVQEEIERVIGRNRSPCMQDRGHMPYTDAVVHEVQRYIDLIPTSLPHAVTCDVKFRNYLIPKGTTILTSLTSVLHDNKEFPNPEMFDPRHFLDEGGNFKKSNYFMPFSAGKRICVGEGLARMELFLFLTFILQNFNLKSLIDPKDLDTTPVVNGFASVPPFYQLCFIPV

For `CCNC(C)Cc1cccc(C(F)(F)F)c1` (racemic) [FFA, (RS)‐ethyl (α‐methyl‐3‐trifluoromethylphenethyl)amine], the “Disappearance of FFA” value (1 μM FFA) is recorded as 49%. For the setting “10 μM FFA”, this molecule yielded an FFA loss of 50%.
